This note sets out measurements from ChEMBL document CHEMBL1944552, “Pharmacophore-based discovery of a novel cytosolic phospholipase A(2)α inhibitor” (Bioorg Med Chem Lett, 2012).

Each structure is given as a SMILES string.

Data set [1] can be described thus: Aqueous solubility of the compound at >10 uM. Format: physicochemical. The note with it: buffer.
Data set [2] in a line: Inhibition of human recombinant His-tagged cPLA2alpha expressed in baculovirus-infected Sf9 cells assessed as residual activity at 10 uM after 1 hr by RP-HPLC analysis.
Data set [3] can be described thus: Inhibition of cPLA2alpha.
Data set [4] in a line: Inhibition of human recombinant His-tagged cPLA2alpha expressed in baculovirus-infected Sf9 cells after 1 hr by RP-HPLC analysis.
Data set [5] is described as follows: Inhibition of cPLA2alpha-mediated [3H]-arachidonic acid release in Ca2+ ionophore A23187-stimulated human monocytes preincubated for 15 mins prior Ca2+ ionophore A23187 stimulation measured after 5 mins by scintillation counting.

For the compound `CCCCCCCCCCCCCCCc1nnc(SCC(=O)O)[nH]1`, the solubility result in data set [1] is given as “Insoluble”. Further, in data set [2], the Activity is 85.1%.
Turning to `Cc1cc(N)ccc1/N=N/c1ccc(/N=N/c2ccc(/N=N/c3ccc4cc(S(=O)(=O)O)cc(S(=O)(=O)O)c4c3)c(C)c2)c(C)c1`, in data set [1], the solubility result was “Insoluble”. For the same compound, the Activity in data set [2] was determined as 81.9%.
Compound `Cn1ccnc1SCCCCOc1ccc(OCC(=O)COc2ccc(C(=O)O)cc2)cc1` registered an IC50 in data set [3] of 63 µM.
`CN(CCc1ccccc1)C(=O)CSc1ccc(OCC(=O)COc2ccc(C(=O)O)cc2)cc1`: the half-inhibitory concentration (IC50) in data set [3] stood at 34 µM.
Still for that read-out and setting: with `O=C(COc1ccc(SCCCCSc2nccs2)cc1)COc1ccc(C(=O)O)cc1` the figure was 0.76 µM.
For the compound `CCCCCCCCCCCCCCCCOc1ccc(S(=O)(=O)N/N=c2/sc3ccc(S(=O)(=O)O)cc3n2C)cc1C(=O)O`, in data set [1], the solubility entry is “Insoluble”. The Activity in data set [2] was 70.2%.
`CCCCCCCCCCCCCCCCOc1ccc(C(=O)O)cc1NC(=O)/C(=N/O)C(C)=O`: the IC50 in data set [4] amounted to 4 µM; in data set [5] it was 5 µM.
For `CCCCCCCCCCCCCCCc1cc(=O)n(-c2ccc(NC(=O)/C=C/C(=O)O)cc2)n1C`, the solubility entry in data set [1] is “Insoluble”. Further, the Activity in data set [2] was found to be 92.6%.
In data set [3], `O=C(COc1ccc(C(=O)O)cc1)COc1ccc(C(=O)NCCCCc2ccccc2)cc1` gave an IC50 of 20 µM.
Take `COc1cc(/N=N/c2ccc3cc(S(=O)(=O)O)cc(S(=O)(=O)O)c3c2)ccc1/N=N/c1ccc(NC(=O)c2ccc(NC(=O)c3ccccc3)cc2)cc1C`: in data set [1], the solubility entry was “Insoluble”. Also, the Activity in data set [2] is 62.7%.
Compound `O=C(COc1ccc(SCCCCCc2ccccc2)cc1)COc1ccc(C(=O)O)cc1` came in with an IC50 in data set [3] of 0.004 µM.
For the compound `CCCCCCCCCCCCCCCCCC1=NCCN1CS(=O)(=O)O`, in data set [1], the solubility entry is recorded as “Insoluble”. Moreover, the Activity in data set [2] was determined as 94.7%.
The corresponding values for `Cc1cc(-c2ccc(/N=N/c3c(S(=O)(=O)O)cc4cc(S(=O)(=O)O)cc(N)c4c3O)c(C)c2)ccc1/N=N/c1ccc2c(S(=O)(=O)O)ccc(N)c2c1O` are “Insoluble” and 87.5%.
The corresponding values for `CCCCCCCCCCCCCCCCN(C)c1ccc(S(=O)(=O)O)cc1[N+](=O)[O-]` are “Insoluble” and 61.4%.
In the case of `CCCCCCCCCCCCCCCCOc1ccc(C(=O)O)cc1`, the solubility entry in data set [1] is given as “Insoluble”. In addition, in data set [2], the Activity came out at 88.4%.
As to `CCCCCCCCCCCCCCCC1=NN(c2ccc(S(=O)(=O)O)cc2)C(=O)C1/N=N/c1ccccc1` (centres undefined), the solubility entry in data set [1] is “Insoluble”. Also, the Activity in data set [2] was 77.1%.
For the compound `CCCCCCCCCCCCCCCCCC1=NCCN1CCN(CS(=O)(=O)O)CS(=O)(=O)O`, the solubility entry in data set [1] is on record as “Insoluble”. Further, in data set [2], the Activity worked out at 106%.

As usually defined, the IC50 is the concentration that gives 50% inhibition.
